Blank lines part the entries; values can stand above or below the molecule they belong to.
Tests used:
endometriosis = conditions: women treated with danazol; cited from earlier work
menorrhagia = conditions: women with ovulatory menorrhagia, acute administration during bleeding; cited from earlier work
cyclic guinea pigs = conditions: cited from earlier work
[1] = as described in DE 43 32 283 / DE 43 32 284; cited from earlier work
[2] = as described in DE 43 32 283 / DE 43 32 284; cited from earlier work; remark: listed apart in the source
[3] = target: T1, progesterone receptor (PR) (Oryctolagus cuniculus, UniProt P06186); experiment: McPhail test, PR agonistic (progestagenic) activity in estradiol-primed juvenile rabbits; assay type: in vivo, rabbit; conditions: 4 days s.c. treatment, absence of progesterone
T1 construct: effects of PR-modulators in the uterus of estrogen primed immature rabbits (McPhail test); from tissue; host or cells: uterus (endometrium) of estradiol-primed juvenile rabbits, in vivo
T1 sequence (P06186 1-930): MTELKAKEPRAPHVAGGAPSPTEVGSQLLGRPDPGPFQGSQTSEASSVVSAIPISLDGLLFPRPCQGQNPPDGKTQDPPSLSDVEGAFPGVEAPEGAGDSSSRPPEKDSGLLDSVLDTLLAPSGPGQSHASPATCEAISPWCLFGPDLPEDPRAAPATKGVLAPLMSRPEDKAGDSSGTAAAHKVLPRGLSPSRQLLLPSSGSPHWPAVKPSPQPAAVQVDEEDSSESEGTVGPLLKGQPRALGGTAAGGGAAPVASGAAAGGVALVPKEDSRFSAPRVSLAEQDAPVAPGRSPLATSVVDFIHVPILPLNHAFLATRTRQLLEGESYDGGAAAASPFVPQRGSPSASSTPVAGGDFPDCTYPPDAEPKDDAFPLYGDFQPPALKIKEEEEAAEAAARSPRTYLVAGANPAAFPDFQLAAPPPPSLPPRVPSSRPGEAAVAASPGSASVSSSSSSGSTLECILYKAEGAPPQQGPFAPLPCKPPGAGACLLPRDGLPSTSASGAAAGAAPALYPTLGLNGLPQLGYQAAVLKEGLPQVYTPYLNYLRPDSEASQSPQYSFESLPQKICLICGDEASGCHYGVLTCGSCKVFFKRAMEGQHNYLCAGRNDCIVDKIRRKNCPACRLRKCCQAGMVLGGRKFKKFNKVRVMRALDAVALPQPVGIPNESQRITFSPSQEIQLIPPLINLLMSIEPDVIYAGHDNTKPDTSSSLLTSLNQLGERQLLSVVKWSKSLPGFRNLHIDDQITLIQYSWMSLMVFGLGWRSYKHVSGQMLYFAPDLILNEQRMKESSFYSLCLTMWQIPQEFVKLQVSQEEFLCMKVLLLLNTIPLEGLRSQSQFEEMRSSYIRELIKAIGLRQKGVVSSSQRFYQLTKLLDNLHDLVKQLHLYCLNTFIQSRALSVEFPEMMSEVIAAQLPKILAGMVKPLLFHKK
Procedure: In the classical bioassay, the McPhail test, assessing progestagenic and antiprogestagenic effects in rabbits (Selye H., Textbook of Endocrinology, 1947, pp. 345-346), progesterone produces a maximum McPhail score of 4 (by definition).
(§1) The PR antagonistic and agonistic properties of mesoprogestins were assessed in estrogen-primed rabbits in the McPhail test according to Selye (Textbook of Endocrinology, 1947, pp. 345-346).

pregnant rats = experiment: Abortifacient activity in pregnant rats; assay type: in vivo, rat; conditions: s.c.; treatment days 5-7 of pregnancy, autopsy day 9; * SAS, probit procedure
Description: (§2) The guinea pig is considered as relevant model of human gestation and parturition (Elger W, Fähnrich M, Beier S, Quing S S, Chwalisz K (1987). Endometrial and myometrial effects of progesterone antagonists in pregnant guinea pigs. Am J Obstet Gynecol 157: 1065-1074; Elger W, Neef G, Beier S, Fähnrich M, Gründel M, Heermann J, Malmendier A, Laurent D, Puri C P, Singh M M, Hasan S H, Becker H (1992). Evaluation of antifertility activities of antigestagens in animal model. In: Puri C P and Van Look P F A (eds), Current Concepts in Fertility Regulation and Reproduction. Wiley Eastern Limited, New Delhi, pp. 303-328; Elger W, Faehnrich M, Beier S, Qing S S, Chwalisz K (1986). Mechanism of action of progesterone antagonists in pregnant guinea pigs. Contraception 6: 47-62; Elger W, Chwalisz K, Faehnrich M, Hasan S H, Laurent D, Beier S, Ottow E, Neef G, Garfield R E (1990). Studies on labor-conditioning and labor-inducing effects of antiprogesterones in animal model. In: Garfield R E (eds), Norwell, pp. 153-175.) The mechanism of abortion of antiprogestins in this species is the initiation of labor and finally the expulsion of the conceptus. Abortifacient effects in the rat during very early pregnancy reflect inhibitory effects on nidation rather than initiation of uterine contractions. Studies in the rat model lead to “overestimation” of the potential of antiprogestins to terminate pregnancy in humans. Conversely, in the guinea pig model, irrespective of the antiprogestin doses, there were high rates of ongoing pregnancies similar to the situation in humans (Elger et al., Current Concepts in Fertility Regulation and Reproduction cited above). Furthermore, in both humans and guinea pigs, there is a strong synergism between antiprogestins and prostaglandins with respect the induction of labor (see the articles cited above and Elger W, Beier S (1983). Prostaglandine and Antigestagene für den Schwangerschaftsabbruch (Prostaglandins and antigestagens for pregnancy termination). German Patent DE 3337450 12; Van Look P, Bygdeman M (1989). Antiprogestational steroids: a new dimension in human fertility regulation. Oxford reviews of reproductive medicine 11: 2-60).

[4] = target: T2, PR (progesterone receptor) (Homo sapiens, UniProt P06401); experiment: Relative binding activity (RBA) at PR, progesterone = 100%; conditions: by Kaufmann
T2 sequence (P06401 1-933): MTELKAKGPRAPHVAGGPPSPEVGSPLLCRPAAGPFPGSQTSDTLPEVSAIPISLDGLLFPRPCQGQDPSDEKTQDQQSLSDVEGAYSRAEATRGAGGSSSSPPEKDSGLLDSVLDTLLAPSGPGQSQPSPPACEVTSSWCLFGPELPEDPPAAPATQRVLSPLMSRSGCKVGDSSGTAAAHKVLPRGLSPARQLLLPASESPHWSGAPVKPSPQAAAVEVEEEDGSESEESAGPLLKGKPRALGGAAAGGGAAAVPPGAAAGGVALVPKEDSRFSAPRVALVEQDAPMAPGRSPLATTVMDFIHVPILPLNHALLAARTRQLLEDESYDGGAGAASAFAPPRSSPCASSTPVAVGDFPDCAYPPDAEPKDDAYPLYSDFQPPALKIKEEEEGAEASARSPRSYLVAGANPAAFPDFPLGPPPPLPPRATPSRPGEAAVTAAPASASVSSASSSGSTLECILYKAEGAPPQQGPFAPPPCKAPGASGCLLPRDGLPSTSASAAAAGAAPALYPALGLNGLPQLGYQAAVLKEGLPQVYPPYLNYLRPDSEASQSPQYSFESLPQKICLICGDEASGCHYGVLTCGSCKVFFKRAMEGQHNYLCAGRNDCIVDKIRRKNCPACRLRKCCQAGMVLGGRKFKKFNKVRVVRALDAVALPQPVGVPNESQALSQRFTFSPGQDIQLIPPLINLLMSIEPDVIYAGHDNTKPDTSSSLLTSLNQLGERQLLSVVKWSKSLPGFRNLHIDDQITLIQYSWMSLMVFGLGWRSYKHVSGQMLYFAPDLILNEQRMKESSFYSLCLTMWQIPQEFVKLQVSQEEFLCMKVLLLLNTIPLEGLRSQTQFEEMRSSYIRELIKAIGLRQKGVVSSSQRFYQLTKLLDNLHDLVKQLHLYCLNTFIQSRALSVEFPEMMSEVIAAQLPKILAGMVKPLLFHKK

pregnant guinea pigs = experiment: Abortifacient / labor inducing activity in pregnant guinea pigs; assay type: in vivo, guinea pig; conditions: for abortifacient activity ED50, guinea pig: s.c., treatment day 43-44 of pregnancy, autopsy day 50; for ranking of abortifacient activity: treated on days 43 and 44 of pregnancy, observed until day 50
Procedure: In the guinea pig model which allows a good prediction of the effects in humans with respect to the abortifacient activity (Elger W, Beier S., Chwalisz K, Fähnrich M, Hasan S H, Henderson D, Neef G, Rohde R (1986): Studies on the mechanism of action of progesterone antagonists. J Steroid Biochem 25: 835-845) the mesoprogestins J 867, J 912, J 956, J 1042 lead up to 100 mg/kg/day to a maximal abortion rate of 20%.
as §2
Pregnant guinea pigs were treated on days 43 and 44 of pregnancy and observed until day 50 of gestation. For the effects of various treatments see table 1 and FIG. 2. It is typical for this model that expulsions occur with a delay of several days after treatment. It can be seen that Mesoprogestins have a much reduced abortifacient activity compared to RU486. […] The differences with respect to abortifacient activity seem qualitative ones. It is not possible to overcome the low abortifacient activity of a Mesoprogestin by the use of a higher dose.
FIG. 2 is graphs showing data on the assessment on cumulative rate of abortion until day 50 in guinea pigs treated on days 43 and 44 of pregnancy.

GR = target: T3, GR (Homo sapiens, UniProt P04150); experiment: Relative binding activity (RBA) at GR, dexamethasone = 100%; conditions: by Kaufmann
T3 sequence (P04150 1-777): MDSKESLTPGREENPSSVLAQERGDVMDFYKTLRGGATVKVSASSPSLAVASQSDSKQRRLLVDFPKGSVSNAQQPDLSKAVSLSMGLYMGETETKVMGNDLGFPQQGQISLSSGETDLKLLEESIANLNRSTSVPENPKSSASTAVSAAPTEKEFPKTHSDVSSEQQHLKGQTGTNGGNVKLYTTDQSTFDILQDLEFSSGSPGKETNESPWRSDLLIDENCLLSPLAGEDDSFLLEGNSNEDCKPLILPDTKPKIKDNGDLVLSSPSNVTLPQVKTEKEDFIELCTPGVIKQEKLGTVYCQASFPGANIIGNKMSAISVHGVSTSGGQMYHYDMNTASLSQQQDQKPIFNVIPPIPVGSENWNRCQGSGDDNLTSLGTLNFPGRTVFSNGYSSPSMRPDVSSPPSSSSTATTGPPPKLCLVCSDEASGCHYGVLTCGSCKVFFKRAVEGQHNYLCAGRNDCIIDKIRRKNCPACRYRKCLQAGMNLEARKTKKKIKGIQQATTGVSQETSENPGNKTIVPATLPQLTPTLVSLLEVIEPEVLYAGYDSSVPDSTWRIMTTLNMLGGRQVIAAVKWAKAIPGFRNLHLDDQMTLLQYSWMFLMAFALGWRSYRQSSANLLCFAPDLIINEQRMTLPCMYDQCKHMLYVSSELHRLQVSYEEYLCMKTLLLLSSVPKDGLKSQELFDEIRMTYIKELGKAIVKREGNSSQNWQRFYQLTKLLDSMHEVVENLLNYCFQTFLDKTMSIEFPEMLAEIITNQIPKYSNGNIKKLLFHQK

[5] = target: T1, progesterone receptor (PR); experiment: McPhail test, PR antagonistic (antiprogestagenic) activity in estradiol-primed juvenile rabbits in the presence of progesterone; assay type: in vivo; conditions: 4 days s.c., in the presence of progesterone 1 mg/rabbit s.c.
Procedure: The capacity of mesoprogestins to antagonize progesterone function is also tested in the McPhail test using a progesterone dose which induces a McPhail score ranging between 3 and 4.
as §1

Compound: C#C[C@]1(O)CC[C@H]2[C@@H]3CCC4=Cc5oncc5C[C@]4(C)[C@H]3CC[C@@]21C [danazol]
women with side effects (endometriosis): ≤ 85%

Compound: NC[C@H]1CC[C@H](C(=O)O)CC1 [tranexamic acid]
blood loss reduction (menorrhagia): 45%

Compound: COC[C@]1(OC)CC[C@H]2[C@@H]3CCC4=CC(=O)CCC4=C3[C@@H](c3ccc(/C=N/OC(C)=O)cc3)C[C@@]21C [J 914, 4-[17β-Methoxy-17α-(methoxymethyl)-3-oxoestra-4,9-dien-11β-yl]benzaldehyd-(1E)-(O-acetyl)oxim]
uterine weights (cyclic guinea pigs): reduced uterine weights
antiglucocorticoid activity compared to RU 486 [1]: markedly reduced
antiprogestagenic activity [2]: strong

dose at which progestagenic effect / endometrial transformation was observed [3]: ≥ 0.1 mg/rabbit
dose of maximum effect [3]: 1 mg/rabbit
maximum effect, McPhail score [3]: ~4 McPhail score
Compound: CC(=O)[C@H]1CC[C@H]2[C@@H]3CCC4=CC(=O)CC[C@]4(C)[C@H]3CC[C@]12C [Progesterone]

Compound: CCOC(=O)O/N=C/c1ccc([C@H]2C[C@@]3(C)[C@@H](CC[C@]3(COC)OC)[C@@H]3CCC4=CC(=O)CCC4=C32)cc1 [J 900, 4-[17β-Methoxy-17α-(methoxymethyl)-3-oxoestra-4,9-dien-11β-yl]benzaldehyd-(1E)-[O-(ethoxy)carbonyl]oxim]
uterine weights (cyclic guinea pigs): reduced uterine weights
antiglucocorticoid activity compared to RU 486 [1]: markedly reduced
antiprogestagenic activity [2]: strong

RBA (%) PR [4]: 162%
RBA (%) GR (GR): 16%
Compound: COCC1(O)CCC2C3CCC4=CC(=O)CCC4=C3C(c3ccc(C=NO)cc3)CC21C (stereo not drawn) [J912, 4-[17β-Hydroxy-17α-(methoxymethyl)-3-oxoestra-4,9-dien-11β-yl]benzaldehyd-(1E)-oxim]
abortifacient activity ED50, rat (pregnant rats): 0.36 mg/animal/day
abortifacient activity ED50, guinea pig (pregnant guinea pigs): >100 mg/animal/day
ranking of abortifacient activity (pregnant guinea pigs): RU486>J956>J867, J912>J1042

Compound: CC#C[C@]1(O)CC[C@H]2[C@@H]3CCC4=CC(=O)CCC4=C3[C@@H](c3ccc(N(C)C)cc3)C[C@@]21C [RU 486, mifepristone, reference compound]
abortifacient activity ED50, rat (pregnant rats): 0.98* mg/animal/day
dose of first antiprogestagenic effect [5]: 0.3-1 mg/rabbit
abortifacient activity ED50, guinea pig (pregnant guinea pigs): 3.8 mg/animal/day
ranking of abortifacient activity (pregnant guinea pigs): RU486>J956>J867, J912>J1042
RBA (%) GR (GR): 685%

RBA (%) PR [4]: 22%
RBA (%) GR (GR): 39%
Compound: CN(C)c1ccc([C@H]2C[C@]3(C)[C@@H](CC[C@]3(O)CCCO)[C@@H]3CCC4=CC(=O)CCC4=C32)cc1 [Onapristone, reference compound]
abortifacient activity ED50, rat (pregnant rats): 1.71* mg/animal/day
abortifacient activity ED50, guinea pig (pregnant guinea pigs): ca 3 mg/animal/day

— patent publication US8193252B1, “Mesoprogestins (progesterone receptor modulators) for the treatment and prevention of benign hormone dependent gynecological disorders” (Bayer Pharma AG, priority 1999, dated 2012)
